Converted amounts (≈) assume the structure as drawn.
Legend:
[1] = tested on: Escherichia coli (ATCC 25922); test: Antimicrobial activity, broth microdilution MIC with resazurin; assay type: cell-based; details: ATCC25922, E. coli, 37 °C, 24 h, average of three independent experiments
Method: (§1) The following strains of bacteria were used as test organisms in this study: Staphylococcus aureus (ATCC 25923), Bacillus subtilis (ATCC 6633), Bacillus cereus (ATCC 10987), and Escherichia coli (ATCC 25922). All the bacteria used were obtained from the American Type Culture Collection (ATCC). Cultures were stored at 4 °C and subcultured every 15 days. The minimal inhibitory concentration (MIC) was determined by the broth microdilution method using 96-well micro-titer plates. A series of dilutions of the tested compounds was used in the experiment against every microorganism. The starting solutions of tested compounds were obtained by measuring off a certain quantity of the compounds and dissolving it in 5% DMSO. The MIC was determined with resazurin. The inoculated plates were incubated at 37 °C for 24 h. Resazurin is an oxidation–reduction indicator used for the evaluation of microbial growth. It is a blue non-fluorescent dye that becomes pink and fluorescent when reduced to resorufin by oxidoreductases within viable cells. The boundary dilution without any changing in color of resazurin was defined as the MIC for the tested microorganism at a given concentration. As a positive control of growth inhibition, streptomycin was used. A 5% DMSO solution was used as a negative control for the influence of the solvents.

[2] = Cytotoxicity, MTT assay, normal cells; assay type: cell-based, human; details: human, MRC-5 normal lung fibroblast cells; MRC-5 normal fibroblast; 72 h
Method: (§2) Cell line cells were obtained from the American Type Culture Collection. Human cervical adenocarcinoma HeLa, human chronic myelogenous leukemia K562, non-small cell lung carcinoma A549, human colon carcinoma LS174, pancreatic carcinoma PaCa-2, and normal human lung fibroblast MRC-5 cell lines were grown in RPMI-1640 medium with 10% fetal bovine serum, L-glutamine, and penicillin–streptomycin solution. Cells were plated into the 96-well cell culture plates. Cells were incubated at 37 °C in CO2 incubator. Adherent cell lines were incubated for 20 h before addition of tested compounds. Two hours before addition of compounds, K562 cells were seeded into 96-well plates. The tested compounds were applied at five different concentrations ranging from 10 to 300 µM for 72 h. Thereafter, the survival of cells was determined by MTT assay in accordance with the protocol established by Mosmann and Ohno and Abe. The solution of MTT was added to blank and cell samples. The plates were incubated for 5 h at 37 °C, and then 10% solution of sodium dodecyl sulfate was added to the wells. The absorbance was measured at 570 nm using Thermo Scientific Multiskan EX plate reader. Three independent experiments were performed.

[3] = tested on: human chronic myelogenous leukemia K562; test: Cytotoxicity, MTT assay; assay type: cell-based; details: 72 h
Method: as §2

[4] = tested on: human cervical adenocarcinoma HeLa; test: Cytotoxicity, MTT assay; assay type: cell-based; details: for IC50: Homo sapiens, HeLa, 72 h; for selectivity index (SI): HeLa cells versus MRC-5
Method: as §2

[5] = tested on: pancreatic carcinoma PaCa-2; test: Cytotoxicity, MTT assay; assay type: cell-based; details: Homo sapiens, 72 h
Method: as §2

[6] = tested on: human colon carcinoma LS174; test: Cytotoxicity, MTT assay; assay type: cell-based
Method: as §2

[7] = tested on: non-small cell lung carcinoma A549; test: Cytotoxicity, MTT assay; assay type: cell-based, human; details: for IC50: Homo sapiens, A549, 72 h; for selectivity index (SI): A549 cells versus MRC-5
Method: as §2

[8] = tested on: Bacillus subtilis (ATCC 6633); test: Antimicrobial activity, broth microdilution MIC with resazurin; assay type: cell-based; details: ATCC6633, B. subtilis, 37 °C, 24 h, average of three independent experiments
Method: as §1

[9] = tested on: Bacillus cereus (ATCC 10987); test: as above; assay type: cell-based; details: ATCC10987, B. cereus, 37 °C, 24 h, average of three independent experiments
Method: as §1

[10] = tested on: Staphylococcus aureus (ATCC 25923); test: as above; assay type: cell-based; details: ATCC25923, S. aureus, 37 °C, 24 h, average of three independent experiments
Method: as §1

[11] = tested on: normal human lung fibroblast MRC-5; test: Cytotoxicity, MTT assay, normal cells; assay type: cell-based; details: MRC-5
Method: as §2

[12] = parameters: method as in PMID 34019615, PMID 20000793; details: cited from earlier work
Gyrase B of E. Coli = tested on: Gyrase B of E. Coli; parameters: method as in PMID 31257079; details: read-out: inhibitory activity IC50; cited from earlier work

SMILES	MIC [1] [µM]	MIC [8] [µM]	MIC [9] [µM]	MIC [10] [µM]	IC50 at 72 h [2] [µM]	IC50 [3] [µM]	IC50 [4] [µM]	IC50 [5] [µM]	IC50 ([6]; Homo sapiens, LS174, 72 h) [µM]	IC50 [7] [µM]	selectivity index (SI) [4]	selectivity index (SI) [7]	toxicity towards MRC-5 cell lines (in words) [11]	IC50 ([6]; 72 h) [µM]	pKa [12]	IC50 (Gyrase B of E. Coli) [nM]
COc1cc(C=C2C(=O)OC(C)(C)OC2=O)ccc1OC(=O)C1CC1 [3c, 2′-methoxy-4′-((2,2-dimethyl-4,6-dioxo-1,3-dioxan-5-ylidene)methyl)phenyl cyclopropanecarboxylate]	85.1 (≈ 29.5 µg/mL)	180 (≈ 62.5 µg/mL)	172 (≈ 59.4 µg/mL)	206 (≈ 71.3 µg/mL)	> 200	70.2 ± 1.68	84.6 ± 1.84	172 ± 5.25	99.6 ± 1.44	45.7 ± 1.65						
COc1ccc(C(=O)Oc2ccc(C=C3C(=O)OC(C)(C)OC3=O)cc2OC)cc1 [3d, 2′-methoxy-4′-((2,2-dimethyl-4,6-dioxo-1,3-dioxan-5-ylidene)methyl)phenyl 4-methoxybenzoate]	74.8 (≈ 30.8 µg/mL)	169 (≈ 69.7 µg/mL)	168 (≈ 69.4 µg/mL)	200 (≈ 82.3 µg/mL)	> 200	105.1 ± 0.92	94.5 ± 3.15	145 ± 2.92	118.9 ± 0.95	36.2 ± 0.39						
CCCCCCCOc1ccc(C=C2C(=O)OC(C)(C)OC2=O)cc1OC [3g, 5-(4′-heptyloxy-3′-methoxybenzylidene)-2,2-dimethyl-1,3-dioxane-4,6-dione]	36.1 (≈ 13.6 µg/mL)	45.2 (≈ 17 µg/mL)	37.5 (≈ 14.1 µg/mL)	60.4 (≈ 22.7 µg/mL)	139 ± 3.07	69.5 ± 1.37		94.2 ± 1.09	47.1 ± 1.69	35.1 ± 0.27						
CCCCCCCCOc1ccc(C=C2C(=O)OC(C)(C)OC2=O)cc1OC [3h, 5-(3′-methoxy-4′-octyloxybenzylidene)-2,2-dimethyl-1,3-dioxane-4,6-dione]	14.7 (≈ 5.74 µg/mL)	31.5 (≈ 12.3 µg/mL)	64.8 (≈ 25.3 µg/mL)	54.2 (≈ 21.2 µg/mL)	72.8 ± 0.77	73.5 ± 1.43	18.2 ± 0.11	90.5 ± 0.83	36.5 ± 0.24	27.4 ± 0.78	2.9	4.3	moderate toxicity			
CC1(C)OC(=O)CC(=O)O1 [Meldrum’s acid]															4.9	
CCNC(=O)Nc1cc(-n2cc(Br)cn2)c(C(=O)Nc2cccnc2)cn1 [P3C, 4-(4-bromo-1H-pyrazol-1-yl)-6-[(ethylcarbamoyl)amino]-N-(pyridine-3-yl)pyridine-3-carboxamide]																37

Continued by falling MIC [1], values first:

MIC [1] [µM]	MIC [8] [µM]	MIC [9] [µM]	MIC [10] [µM]	SMILES	IC50 at 72 h [2] [µM]	IC50 [3] [µM]	IC50 [4] [µM]	IC50 [5] [µM]	IC50 ([6]; Homo sapiens, LS174, 72 h) [µM]	IC50 [7] [µM]	selectivity index (SI) [4]	selectivity index (SI) [7]	toxicity towards MRC-5 cell lines (in words) [11]	IC50 ([6]; 72 h) [µM]	pKa [12]	IC50 (Gyrase B of E. Coli) [nM]
115 (≈ 37.3 µg/mL)				COc1cc(C=C2C(=O)OC(C)(C)OC2=O)cc([N+](=O)[O-])c1O [3a, 5-(4′-hydroxy-3′-methoxy-5′-nitrobenzylidene)-2,2-dimethyl-1,3-dioxane-4,6-dione]	> 200	151 ± 3.47	126 ± 1.45	> 200	> 200	> 200						
89.5 (≈ 29.9 µg/mL)	175 (≈ 58.6 µg/mL)	174 (≈ 58.2 µg/mL)	210 (≈ 70.4 µg/mL)	CCC(=O)Oc1ccc(C=C2C(=O)OC(C)(C)OC2=O)cc1OC [3b, 2′-methoxy-4′-((2,2-dimethyl-4,6-dioxo-1,3-dioxan-5-ylidene)methyl)phenyl propionate]	> 200	74.5 ± 1.73	102 ± 2.14	153 ± 4.29	105 ± 4.62	41.2 ± 1.74						
38.1 (≈ 15.6 µg/mL)	133 (≈ 54.6 µg/mL)	80.5 (≈ 33 µg/mL)	145 (≈ 59.6 µg/mL)	COc1cc(C=C2C(=O)OC(C)(C)OC2=O)ccc1OCCOCCOCCO [3e, 5-(4′-(2″-(2′″-(2″″-hydroxyethoxy)ethoxy)ethoxy)-3′-methoxybenzylidene)-2,2-dimethyl-1,3-dioxane-4,6-dione]	111 ± 2.19	80.5 ± 2.36	37.3 ± 1.2	182 ± 3.94	38.1 ± 0.41	25.9 ± 0.46	4.0	2.6				
37.5 (≈ 13.6 µg/mL)	48.3 (≈ 17.5 µg/mL)	42.3 (≈ 15.3 µg/mL)	73.9 (≈ 26.8 µg/mL)	CCCCCCOc1ccc(C=C2C(=O)OC(C)(C)OC2=O)cc1OC [3f, 5-(4′-hexyloxy-3′-methoxybenzylidene)-2,2-dimethyl-1,3-dioxane-4,6-dione]	144 ± 2.84	71.9 ± 1.65	63.5 ± 0.45	110 ± 1.75	45.3 ± 0.58	39.6 ± 0.74						
12.4 (≈ 5.19 µg/mL)	29.5 (≈ 12.3 µg/mL)	41.5 (≈ 17.4 µg/mL)	50.9 (≈ 21.3 µg/mL)	CCCCCCCCCCOc1ccc(C=C2C(=O)OC(C)(C)OC2=O)cc1OC [3i, 5-(4′-decyloxy-3′-methoxybenzylidene)-2,2-dimethyl-1,3-dioxane-4,6-dione]	74.6 ± 1.46	63.7 ± 2.49	15.7 ± 0.28	58.2 ± 0.74	20.8	21.8 ± 0.91	4.8		moderate toxicity	30.5 ± 0.35		
0.01 (≈ 0.00582 µg/mL)	0.003 (≈ 0.00174 µg/mL)	0.003 (≈ 0.00174 µg/mL)	0.005 (≈ 0.00291 µg/mL)	[H]/N=C(/N)N[C@H]1[C@H](O)[C@@H](O)[C@H](O[C@@H]2O[C@@H](C)[C@](O)(C=O)[C@H]2O[C@@H]2O[C@@H](CO)[C@H](O)[C@@H](O)[C@@H]2NC)[C@@H](N/C(N)=N\[H])[C@@H]1O [streptomycin, reference compound]												

— publication PMC9968196, “Synthesis, Characterization, and Biological Evaluation of Meldrum’s Acid Derivatives: Dual Activity and Molecular Docking Study” (Pharmaceuticals, 2023)
